Reference: patent publication US8952024B2, “Herbicidal pyrimidone derivatives” (E I du Pont de Nemours and Company, priority 2009, dated 2015)

How the values were obtained:
Assay type in all cases: in vivo
[1] = tested on: ducksalad (Heteranthera limosa); experiment: Test B flooded paddy test
Procedure, shortened: (§1)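 Plants were grown to the 2-leaf stage, then pots were flooded to 3 cm above the soil and compounds were applied directly into the paddy water. That depth was held throughout. After 13 to 15 days in a greenhouse, injury was visually rated against controls on a 0–100 scale.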

rice (Oryza sativa) = experiment: Test B flooded paddy test
Procedure, shortened: as §1

[2] = tested on: barnyardgrass (Echinochloa crus-galli); experiment: Test B flooded paddy test
Procedure, shortened: as §1

[3] = tested on: umbrella sedge (Cyperus difformis); experiment: Test B flooded paddy test
Procedure, shortened: as §1

[4] = tested on: morningglory (Ipomoea coccinea); experiment: Test B pre-/postemergence plant response
Procedure, shortened: (§2)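 Pre-em in loam/sand; post-em at 1–4 leaf (2–18 cm) in peat mix. Solvent + surfactant formulation. Greenhouse 13–15 d; visual % control vs untreated, 0–100.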

[5] = tested on: Surinam grass (Brachiaria decumbens); experiment: Test B pre-/postemergence plant response
Procedure, shortened: as §2

[6] = tested on: Italian ryegrass (Lolium multiflorum); experiment: Test B pre-/postemergence plant response
Procedure, shortened: as §2

[7] = tested on: ragweed (common ragweed, Ambrosia elatior); experiment: Test B pre-/postemergence plant response
Procedure, shortened: as §2

corn (Zea mays) = experiment: Test B pre-/postemergence plant response
Procedure, shortened: as §2

[8] = tested on: bermudagrass (Cynodon dactylon); experiment: Test B pre-/postemergence plant response
Procedure, shortened: as §2

soybean (Glycine max) = experiment: Test B pre-/postemergence plant response
Procedure, shortened: as §2

[9] = tested on: cocklebur (Xanthium strumarium); experiment: Test B pre-/postemergence plant response
Procedure, shortened: as §2

[10] = tested on: blackgrass (Alopecurus myosuroides); experiment: Test B pre-/postemergence plant response
Procedure, shortened: as §2

[11] = 250 g ai/ha, flooded paddy test, visual rating on 0 to 100 scale (0 no effect, 100 complete control) after 13 to 15 days
[12] = Flood (flooded paddy test), 62 g ai/ha, scale of 0 to 100 where 0 is no effect and 100 is complete control, 13 to 15 days
[13] = 31 g ai/ha, postemergence, scale 0 to 100, 0 is no effect, 100 is complete control
[14] = 62 g ai/ha, postemergence, 0 is no effect, 100 is complete control, 13 to 15 days
[15] = Postemergence, 125 g ai/ha, visual rating after 13 to 15 days, scale 0 (no effect) to 100 (complete control)
[16] = Postemergence, 250 g ai/ha, scale 0 to 100 (0 no effect, 100 complete control)
[17] = Preemergence, 31 g ai/ha, scale 0 to 100 (0 no effect, 100 complete control)
[18] = Preemergence, 62 g ai/ha, scale 0 to 100 (0 no effect, 100 complete control)
[19] = Preemergence, 125 g ai/ha, scale 0 to 100, 0 no effect, 100 complete control
[20] = Preemergence, 250 g ai/ha, 0 to 100 scale

CCCn1c(-c2cccs2)ncc(C(=O)C2=C(O)CCCC2=O)c1=O [Compound 77]
Plant response rating, Flood, Ducksalad [1, 11]: 40 | Plant response rating, Ducksalad [1, 12]: 30 | Plant response rating, Flood, Rice (rice (Oryza sativa); [11]): 15 | Plant response rating, Rice (rice (Oryza sativa); [12]): 0 | Plant response rating, Flood, Barnyardgrass [2, 11]: 65 | Plant response rating, Barnyardgrass [2, 12]: 30 | Plant response rating, Flood, Sedge, Umbrella [3, 11]: 40 | Plant response rating, Sedge, Umbrella [3, 12]: 40 | Plant response rating, Morningglory [4, 13]: 75 | Morningglory plant response rating (0 to 100 scale) [4, 14]: 75 | Plant response rating, Morningglory [4, 15]: 80 | Plant response rating, Morningglory [4, 16]: 90 | Plant response rating, Morningglory [4, 17]: 0 | Plant response rating, Morningglory [4, 18]: 65 | Plant response rating, Morningglory [4, 19]: 75 | Morningglory plant response rating [4, 20]: 90 | Plant response rating, Surinam Grass [5, 13]: 65 | Surinam Grass plant response rating (0 to 100 scale) [5, 14]: 65 | Plant response rating, Surinam Grass [5, 15]: 75 | Plant response rating, Surinam Grass [5, 16]: 80 | Plant response rating, Surinam Grass [5, 17]: 0 | Plant response rating, Surinam Grass [5, 18]: 20 | Plant response rating, Surinam Grass [5, 19]: 75 | Surinam Grass plant response rating [5, 20]: 100 | Plant response rating, Ryegrass, Italian [6, 13]: 0 | Ryegrass, Italian plant response rating (0 to 100 scale) [6, 14]: 5 | Plant response rating, Ryegrass, Italian [6, 15]: 5 | Plant response rating, Ryegrass, Italian [6, 16]: 10 | Plant response rating, Ryegrass, Italian [6, 17]: 0 | Plant response rating, Ryegrass, Italian [6, 18]: 0 | Plant response rating, Ryegrass, Italian [6, 19]: 0 | Ryegrass, Italian plant response rating [6, 20]: 0 | Plant response rating, Ragweed [7, 13]: 75 | Ragweed plant response rating (0 to 100 scale) [7, 14]: 75 | Plant response rating, Ragweed [7, 15]: 80 | Plant response rating, Ragweed [7, 16]: 85 | Plant response rating, Ragweed [7, 17]: 50 | Plant response rating, Ragweed [7, 18]: 75 | Plant response rating, Ragweed [7, 19]: 90 | Ragweed plant response rating [7, 20]: 95 | Plant response rating, Corn (corn (Zea mays); [13]): 0 | Corn plant response rating (0 to 100 scale) (corn (Zea mays); [14]): 5 | Plant response rating, Corn (corn (Zea mays); [15]): 60 | Plant response rating, Corn (corn (Zea mays); [16]): 75 | Plant response rating, Corn (corn (Zea mays); [17]): 0 | Plant response rating, Corn (corn (Zea mays); [18]): 0 | Plant response rating, Corn (corn (Zea mays); [19]): 0 | Corn plant response rating (corn (Zea mays); [20]): 0 | Plant response rating, Bermudagrass [8, 13]: 90 | Bermudagrass plant response rating (0 to 100 scale) [8, 14]: 90 | Plant response rating, Bermudagrass [8, 15]: 95 | Plant response rating, Bermudagrass [8, 16]: 95 | Plant response rating, Bermudagrass [8, 17]: 55 | Plant response rating, Bermudagrass [8, 18]: 100 | Plant response rating, Bermudagrass [8, 19]: 100 | Bermudagrass plant response rating ([8]; Preemergence, 250 g ai/ha, 0 to 100 scale, 0 no effect, 100 complete control): 100 | Plant response rating, Soybean (soybean (Glycine max); [13]): 25 | Soybean plant response rating (0 to 100 scale) (soybean (Glycine max); [14]): 50 | Plant response rating, Soybean (soybean (Glycine max); [15]): 70 | Plant response rating, Soybean (soybean (Glycine max); [16]): 70 | Plant response rating, Cocklebur [9, 13]: 0 | Cocklebur plant response rating (0 to 100 scale) [9, 14]: 0 | Plant response rating, Cocklebur [9, 15]: 60 | Plant response rating, Cocklebur [9, 16]: 85 | Plant response rating, Cocklebur [9, 17]: 0 | Plant response rating, Cocklebur [9, 18]: 0 | Plant response rating, Cocklebur [9, 19]: 10 | Cocklebur plant response rating [9, 20]: 65 | Plant response rating, Blackgrass [10, 13]: 0 | Blackgrass plant response rating (0 to 100 scale) [10, 14]: 0 | Plant response rating, Blackgrass [10, 15]: 0 | Plant response rating, Blackgrass [10, 16]: 5 | Plant response rating, Blackgrass [10, 17]: 0 | Plant response rating, Blackgrass [10, 18]: 0 | Plant response rating, Blackgrass [10, 19]: 0 | Blackgrass plant response rating [10, 20]: 0
